Laboratory results from patent US8546343B2, “Aminoglycoside antibiotics targeting bacterial 16S ribosomal RNA” (Eidgenoessische Technische Hochschule Zurich, priority 2007, dated 2013).

Assays:
Assay type in all cases: cell-based, Mycobacterium smegmatis
[1] = test system: M. smegmatis ΔrrnB (bacterial ribosomes); experiment: MIC, recombinant M. smegmatis with bacterial (wild-type) ribosomes; conditions: 72 h at 37° C.
Description: (§1) The strain used for introduction/selection of mutational alterations was a genetically modified derivative of Mycobacterium smegmatis carrying a single functional chromosomal rRNA operon (Sander et al. Mol. Microbiol. 1996, 22: 841-848). This strain, termed M. smegmatis rrn^−, allowed for the selection of mutational rRNA gene alterations using a plasmid carrying the rRNA gene with the respective mutational alteration.)
(§2) The rRNA gene carried on the plasmid encodes either the complete rRNA operon (Prammananan et al. Antimicrob. Agents Chemother. 1999, 43: 447-453) or a non-functional rRNA gene fragment of approximately 1.0 kb (Pfister et al. Antimicrob. Agents Chemother. 2003, 47: 1496-1502). PCR-mutagenesis in vitro was used to generate the mutagenized rRNA gene fragment. In the case of a partial rRNA gene fragment the mutagenized rRNA gene fragment was cloned into vectors pMV261 or pMV361 (Sander et al. Mol. Microbiol. 2002, 46: 1295-1304; Pfister et al. Antimicrob. Agents Chemother. 2003, 47: 1496-1502) to result in vectors carrying a partial rRNA gene fragment of approximately 1.0 kb with the mutational alteration introduced. In the case of plasmids carrying the complete rRNA operon the mutagenized rRNA gene fragment obtained by PCR was cloned into vectors pMV361 rRNA or pMV261 rRNA using appropriate restriction sites (Prammananan et al. Antimicrob. Agents Chemother. 1999, 43: 447-453). Vectors pMV361 rRNA and pMV261 rRNA carried a complete copy of the rRNA operon from M. smegmatis (Sander et al. Mol. Microbiol. 1997, 26: 469-480). Introduction of mutations into the plasmid encoded rRNA was confirmed by sequencing.
(§3) The single rRNA allelic derivative of M. smegmatis, i.e. M. smegmatis rrn, was used for transformation of the plasmids. The strain was made electro-competent and transformed according to standard techniques and as described previously (Sander et al. Mol. Microbiol. 1997, 26: 469-484). Following primary selection, the plasmid-encoded mutational rRNA gene alteration was transferred into the single chromosomal rRNA operon by means of RecA-mediated homologous recombination (Prammananan at al. Antimicrob. Agents Chemother. 1999, 43: 447-453). Introduction of the mutational rRNA gene alteration into the single functional chromosomal rRNA operon by gene conversion was confirmed by sequence determination.
(§4) Ribosomal drug susceptibility was studied by determining the minimal inhibitory concentrations, as described in detail in Pfister et al. 2003 and 2005 (see above).
(§5) The recombinants carrying the respective mutational alterations in the functional rRNA operon were colony-purified and subjected to determinations of minimal inhibitory concentrations (MIC) to determine ribosomal drug susceptibility. Cultures from single colonies were grown in LB medium supplemented with 0.05% Tween 80 and used for MIC tests in a microtiter plate format. Starting cultures contained 200 μl of bacterial cells at an optical density of 0.025 at 600 nm, and the respective drug was added in twofold series of dilution.
(§6) Key nucleotides which distinguish the prokaryotic from the eukaryotic decoding site are 16S rRNA positions 1408 (bacterial ribosome: A, eukaryotic cytosolic ribosomes: G) and 1491 (bacterial ribosomes: G, eukaryotic cytosolic ribosomes: A, eukaryotic mitochondrial ribosome: C).

[2] = test system: M. smegmatis ΔrrnB 1408G (16S rRNA position 1408 G, eukaryotic cytosolic ribosomes); experiment: MIC, recombinant M. smegmatis with mutant ribosomes 1408G; conditions: M. smegmatis ΔrrnB 1408G mutant ribosomes; 72 h at 37° C.
Description: as §1, §2, §3, §4, §5, §6

[3] = test system: M. smegmatis ΔrrnB 1491A (16S rRNA position 1491 A, eukaryotic cytosolic ribosomes); experiment: MIC, recombinant M. smegmatis with mutant ribosomes 1491A; conditions: M. smegmatis ΔrrnB 1491A mutant ribosomes; 72 h at 37° C.
Description: as §1, §2, §3, §4, §5, §6

[4] = test system: M. smegmatis ΔrrnB 1491C (16S rRNA position 1491 C, eukaryotic mitochondrial ribosome); experiment: MIC, recombinant M. smegmatis with mutant ribosomes 1491C; conditions: M. smegmatis ΔrrnB 1491C mutant ribosomes; 72 h at 37° C.
Description: as §1, §2, §3, §4, §5, §6

Row | SMILES | minimal inhibitory concentrations ΔrrnB [1] | minimal inhibitory concentrations ΔrrnB 1408G [2] | minimal inhibitory concentrations ΔrrnB 1491A [3] | minimal inhibitory concentrations ΔrrnB 1491C [4]
1 | NC[C@@H]1O[C@H](O[C@H]2[C@@H](O)[C@H](O[C@@H]3[C@@H](O)[C@H](N)C[C@H](N)[C@H]3O[C@H]3O[C@@H]4CO[C@@H](c5ccccc5[N+](=O)[O-])O[C@H]4[C@H](O)[C@H]3N)O[C@@H]2CO)[C@H](N)[C@@H](O)[C@@H]1O [Compound 5.16, 4′,6′-O-o-Nitrobenzylideneparomomycin] | 4 to 16 µg/mL | 512 µg/mL | 512 µg/mL | >512 µg/mL
2 | CN(C)c1ccc([C@@H]2OC[C@H]3O[C@H](O[C@H]4[C@H](O[C@@H]5O[C@H](CO)[C@@H](O[C@H]6O[C@@H](CN)[C@@H](O)[C@H](O)[C@H]6N)[C@H]5O)[C@@H](O)[C@H](N)C[C@@H]4N)[C@H](N)[C@@H](O)[C@@H]3O2)cc1 [Compound 5.18, 4′,6′-O-p-Dimethylaminobenzylideneparomomycin] | 2 to 4 µg/mL | 256 to 512 µg/mL | 256 µg/mL | >512 µg/mL
3 | NC[C@@H]1O[C@H](O[C@H]2[C@@H](O)[C@H](O[C@@H]3[C@@H](O)[C@H](N)C[C@H](N)[C@H]3O[C@H]3O[C@@H]4CO[C@@H](c5cccc6ccccc56)O[C@H]4[C@H](O)[C@H]3N)O[C@@H]2CO)[C@H](N)[C@@H](O)[C@@H]1O [Compound 5.19, 4′,6′-O-1-Naphthylideneparomomycin] | 4 to 8 µg/mL | 512 µg/mL | 256 to 512 µg/mL | 256 µg/mL
4 | NC[C@@H]1O[C@H](O[C@H]2[C@@H](O)[C@H](O[C@@H]3[C@@H](O)[C@H](N)C[C@H](N)[C@H]3O[C@H]3O[C@@H]4COC(c5ccco5)O[C@H]4[C@H](O)[C@H]3N)O[C@@H]2CO)[C@H](N)[C@@H](O)[C@@H]1O (stereo partly shown) [Compound 5.21, 4′,6′-O-2-Furanylideneparomomycin] | 8 to 16 µg/mL | >512 µg/mL | >512 µg/mL | >512 µg/mL
5 | NC[C@@H]1O[C@H](O[C@H]2[C@@H](O)[C@H](O[C@@H]3[C@@H](O)[C@H](N)C[C@H](N)[C@H]3O[C@H]3O[C@@H]4COC(c5cccs5)O[C@H]4[C@H](O)[C@H]3N)O[C@@H]2CO)[C@H](N)[C@@H](O)[C@@H]1O (stereo partly shown) [Compound 5.22, 4′,6′-O-2-Thiophenylideneparomomycin] | 8 to 16 µg/mL | >512 µg/mL | >512 µg/mL | >512 µg/mL
6 | CC1OC[C@H]2O[C@H](O[C@H]3[C@H](O[C@@H]4O[C@H](CO)[C@@H](O[C@H]5O[C@@H](CN)[C@@H](O)[C@H](O)[C@H]5N)[C@H]4O)[C@@H](O)[C@H](N)C[C@@H]3N)[C@H](N)[C@@H](O)[C@@H]2O1 (stereo partly shown) [Compound 5.23, 4′,6′-O-Ethylideneparomomycin] | 32 µg/mL | >512 µg/mL | >512 µg/mL | >512 µg/mL
7 | NC[C@@H]1O[C@H](O[C@H]2[C@@H](O)[C@H](O[C@@H]3[C@@H](O)[C@H](N)C[C@H](N)[C@H]3O[C@H]3O[C@@H]4CO[C@@H](Cc5ccccc5)O[C@H]4[C@H](O)[C@H]3N)O[C@@H]2CO)[C@H](N)[C@@H](O)[C@@H]1O [Compound 5.24] | 64 µg/mL | 256 µg/mL | 256 µg/mL | 128 to 256 µg/mL
8 | NC[C@@H]1O[C@H](O[C@H]2[C@@H](O)[C@H](O[C@@H]3[C@@H](O)[C@H](N)C[C@H](N)[C@H]3O[C@H]3O[C@@H]4CO[C@@H](C5CCCCC5)O[C@H]4[C@H](O)[C@H]3N)O[C@@H]2CO)[C@H](N)[C@@H](O)[C@@H]1O [Compound 5.27, 4′,6′-O-Cyclohexylmethylideneparomomycin] | 32 to 64 µg/mL | >512 µg/mL | >512 µg/mL | >512 µg/mL
9 | NCC1OC(OC2C(CO)OC(OC3C(O)C(N)CC(N)C3OC3OC(COCc4ccccc4)C(O)C(O)C3N)C2O)C(N)C(O)C1O (stereo not shown) [Compound 15, 6′-O-Benzylparomomycin] | 32 to 64 µg/mL | >512 µg/mL | >512 µg/mL | >512 µg/mL
10 | NC[C@@H]1O[C@H](O[C@H]2[C@@H](O)[C@H](O[C@@H]3[C@@H](O)[C@H](N)C[C@H](N)[C@H]3O[C@H]3O[C@H](CO)[C@@H](OCc4ccc(C(F)(F)F)cc4)[C@H](O)[C@H]3N)O[C@@H]2CO)[C@H](N)[C@@H](O)[C@@H]1O [Compound 19b, 4′-p-(trifluoromethyl)benzylparomomycin] | 8 µg/mL | >512 µg/mL | >512 µg/mL | ≧512 μg/ml
11 | NC[C@@H]1O[C@H](O[C@H]2[C@@H](O)[C@H](O[C@@H]3[C@@H](O)[C@H](N)C[C@H](N)[C@H]3O[C@H]3O[C@H](CO)[C@@H](OCOCc4ccccc4)[C@H](O)[C@H]3N)O[C@@H]2CO)[C@H](N)[C@@H](O)[C@@H]1O [Compound 19d, 4′-Benzyloxymethylparomomycin] | 16 µg/mL | >512 µg/mL | >512 µg/mL | >512 µg/mL
12 | COc1ccc(COC2C(CO)OC(OC3C(N)CC(N)C(O)C3OC3OC(CO)C(OC4OC(CN)C(O)C(O)C4N)C3O)C(N)C2O)cc1 (stereo not shown) [Compound 19e, 4′-p-Methoxybenzylparomomycin] | 8 µg/mL | >512 µg/mL | >512 µg/mL | >512 µg/mL
13 | NC[C@@H]1O[C@H](O[C@H]2[C@@H](O)[C@H](O[C@@H]3[C@@H](O)[C@H](N)C[C@H](N)[C@H]3O[C@H]3O[C@H](CN)[C@@H](O)[C@H](O)[C@H]3N)O[C@@H]2CO)[C@H](N)[C@@H](O)[C@@H]1O [Neomycin B, reference compound] | 0.5 to 1 µg/mL | >512 µg/mL | 4 µg/mL | 16 to 32 µg/mL
